# Measured values: ChEMBL document CHEMBL6121016, “Design, Synthesis, and Biological Evaluation of 1,3,4-Thiadiazole Derivatives as Novel Potent Peptide Deformylase Inhibitors for Combating Drug-Resistant Gram-Positive and -Negative Bacteria” (J Med Chem, 2025)
# How the values were obtained:
# Type in all cases: functional
# Conditions in all cases: time 16-18 hrs
# Staphylococcus aureus [1] = assay: Antibacterial activity against methicillin-resistant Staphylococcus aureus ATCC 33591 after 16 to 18 hrs by broth microdilution method
# Staphylococcus aureus [2] = assay: Antibacterial activity against methicillin-resistant Staphylococcus aureus ATCC 43300 after 16 to 18 hrs by broth microdilution method
# Staphylococcus aureus [3] = assay: Antibacterial activity against methicillin-resistant Staphylococcus aureus Bio-090770 after 16 to 18 hrs by broth microdilution method
# Staphylococcus aureus [4] = assay: Antibacterial activity against methicillin-susceptible Staphylococcus aureus ATCC 29213 after 16 to 18 hrs by broth microdilution method
# Staphylococcus aureus [5] = assay: Antibacterial activity against methicillin-susceptible Staphylococcus aureus ATCC 25923 after 16 to 18 hrs by broth microdilution method
# Staphylococcus aureus [6] = assay: Antibacterial activity against methicillin-susceptible Staphylococcus aureus ATCC 13709 after 16 to 18 hrs by broth microdilution method
# [7] = test system: Staphylococcus epidermidis; assay: Antibacterial activity against Staphylococcus epidermidis after 16 to 18 hrs by broth microdilution method
# Escherichia coli = assay: Antibacterial activity against Escherichia coli ATCC 25922 after 16 to 18 hrs by broth microdilution method
# Klebsiella pneumoniae = assay: Antibacterial activity against Klebsiella pneumoniae CICC 21611 after 16 to 18 hrs by broth microdilution method
# Acinetobacter baumannii [8] = assay: Antibacterial activity against Acinetobacter baumannii Bio 34235 after 16 to 18 hrs by broth microdilution method
# Acinetobacter baumannii [9] = assay: Antibacterial activity against drug-resistant Acinetobacter baumannii Bio 53272 after 16 to 18 hrs by broth microdilution method
SMILES,MIC (Staphylococcus aureus [1]) [µg/mL],MIC (Staphylococcus aureus [2]) [µg/mL],MIC (Staphylococcus aureus [3]) [µg/mL],MIC (Staphylococcus aureus [4]) [µg/mL],MIC (Staphylococcus aureus [5]) [µg/mL],MIC (Staphylococcus aureus [6]) [µg/mL],MIC [7] [µg/mL],MIC (Escherichia coli) [µg/mL],MIC (Klebsiella pneumoniae) [µg/mL],MIC (Acinetobacter baumannii [8]) [µg/mL],MIC (Acinetobacter baumannii [9]) [µg/mL]
CCCC[C@H](CN(O)C=O)C(=O)N1CCC[C@H]1c1nnc(-c2ccc3[nH]ccc3c2)s1,4,4,8,4,8,4,16,> 16,> 16,> 16,> 16
CCCC[C@H](CN(O)C=O)C(=O)N1CCC[C@H]1c1nnc(-c2cc(C(F)(F)F)cc(C(F)(F)F)c2)s1,2,2,4,4,2,2,> 16,> 16,> 16,> 16,> 16
CCCC[C@H](CN(O)C=O)C(=O)N1CCC[C@H]1c1nnc(C2CCCCC2)s1,0.5,1,2,2,2,2,4,> 16,> 16,> 16,> 16
CCCC[C@H](CN(O)C=O)C(=O)N1CCC[C@H]1c1nnc(-c2ccc([N+](=O)[O-])cc2)s1,0.25,0.25,1,0.5,0.5,0.5,1,> 16,> 16,> 16,8
CCCC[C@H](CN(O)C=O)C(=O)N1CCC[C@H]1c1nnc(-c2cccc3ccccc23)s1,4,16,16,16,16,16,2,> 16,> 16,> 16,> 16
CCCC[C@H](CN(O)C=O)C(=O)N1CCC[C@H]1c1nnc(-c2ccc(F)cc2)s1,0.25,1,2,2,2,1,2,16,> 16,> 16,8
CCCC[C@H](CN(O)C=O)C(=O)N1CCC[C@H]1c1nnc(-c2cc(C)nn2C)s1,0.25,0.25,1,1,1,1,1,64,32,32,16
CCCC[C@H](CN(O)C=O)C(=O)N1CCC[C@H]1c1nnc(-c2ccc(C)cc2)s1,0.5,1,1,1,1,1,2,16,> 16,> 16,8
CCCC[C@H](CN(O)C=O)C(=O)N1CCC[C@H]1c1nnc(-c2ccc(F)cn2)s1,0.5,0.5,2,1,2,2,2,16,> 16,16,8
